The MIC is the smallest concentration in the dilution series that meets the test's criterion for growth inhibition.

Results on three compounds are retold here after patent US5233036A, “Rapamycin alkoxyesters” (American Home Products Corporation, priority 1992, dated 1993).

The subject of one test is thymocyte proliferation. Put plainly: Comitogen-induced thymocyte proliferation procedure (LAF). It counts as cell-based, BALB/c mice. The following applies: for LAF (ratio): ratio relative to rapamycin (rapamycin 1.0), 72 h culture, PHA and IL-1. Here is the method:
(§1) Immunosuppressive activity was evaluated in an in vitro standard pharmacological test procedure to measure lymphocyte proliferation (LAF) and in two in vivo standard pharmacological test procedures. The first in vivo procedure was a popliteal lymph node (PLN) test procedure which measured the effect of compounds of this invention on a mixed lymphocyte reaction and the second in vivo procedure evaluated the survival time of a pinch skin graft.
Briefly, cells from the thymus of normal BALB/c mice are cultured for 72 hours with PHA and IL-1 and pulsed with tritiated thymidine during the last six hours. […] Cells are harvested and incorporated; radioactivity is determined. Inhibition of lymphoproliferation is assessed in percent change in counts per minute from non-drug treated controls. The results are expressed by the following ratio, or as the percent inhibition of lymphoproliferation of 1 μM. [formula]

Another test relates to pinch skin graft. Put plainly: Survival time of pinch skin graft. The test is classed as in vivo, male DBA/2 donors transplanted to male BALB/c recipients. The following applies: intraperitoneal; mean ± S.D. The procedure:
as §1
The second in vivo test procedure is designed to determine the survival time of pinch skin graft from male DBA/2 donors transplanted to male BALB/c recipients. The method is adapted from Billingham R. E. and Medawar P. B., J. Exp. Biol. 28:385-402, (1951). Briefly, a pinch skin graft from the donor is grafted on the dorsum of the recipient as a homograft, and an autograft is used as control in the same region. […] Untreated recipients serve as rejection control. The graft is monitored daily and observations are recorded until the graft becomes dry and forms a blackened scab. This is considered as the rejection day. The mean graft survival time (number of days±S.D.) of the drug treatment group is compared with the control group.

Test [1] relates to Candida albicans. Put plainly: Plate test procedure for measurement of inhibition (antifungal activity). The test is classed as cell-based. Here is the method: The following represents the typical procedure used. Compound to be tested was placed on sterile dried 1/4" plate disks, and allowed to dry. Agar plates were seeded with fungi and allowed to solidify. The impregnated disks were placed on the seeded Agar surface and incubated for the time required for the particular culture. Results are expressed in MIC (μg/ml) to inhibit growth.

The test system of test [2] is mixed lymphocyte reaction. Put plainly: Popliteal lymph node (PLN) test procedure (mixed lymphocyte reaction in vivo). More on the design: species or system C3H mice (recipient), BALB/c donors. The following applies: ratio relative to rapamycin (rapamycin 1.0); drug daily p.o. Day 0 to Day 4. The procedure: as §1
A mixed lymphocyte reaction (MLR) occurs when lymphoid cells from genetically distinct animals are combined in tissue culture. Each stimulates the other to undergo blast transformation which results in increased DNA synthesis that can be quantified by the incorporation of tritiated thymidine. Since stimulating a MLR is a function of disparity at Major Histocompatibility antigens, as in vivo popliteal lymph node (PLN) test procedure closely correlates to host vs. graft disease. Briefly, irradiated spleen cells from BALB/c donors are injected into the right hind foot pad of recipient C3H mice. The drug is given daily, p.o. from Day 0 to Day 4. On Day 3 and Day 4, tritiated thymidine is given i.p., b.i.d.. On Day 5, the hind popliteal lymph nodes are removed and dissolved, and radioactivity counted. […] Percent suppression is calculated using the non-drug treated animals as allogenic control. […]

Test [3] concerns Candida albicans. The following applies: particularly against Candida albicans, both in vitro and in vivo; cited from earlier work.
For test [4] the following is noted: alone or in combination with picibanil; cited from earlier work.
Test [5] relates to experimental allergic encephalomyelitis. The following applies: model for multiple sclerosis; cited from earlier work.
The mark [6] stands for this setting: ATCC38246, strain ATCC 38246, read-out: MIC.
[7] abbreviates: ATCC38247, strain ATCC 38247, read-out: MIC.
Setting [8] is: ATCC38248, strain ATCC 38248, read-out: MIC.

Converted amounts (≈) assume the structure as drawn. Read-outs that look alike come from different tables or passages of the source.

Take `CCOC(=O)CO[C@@H]1CC[C@@H](C[C@@H](C)[C@@H]2CC(=O)[C@H](C)/C=C(\C)[C@@H](O)[C@@H](OC)C(=O)[C@H](C)C[C@H](C)/C=C/C=C/C=C(\C)[C@@H](OC)C[C@@H]3CC[C@@H](C)[C@@](O)(O3)C(=O)C(=O)N3CCCC[C@H]3C(=O)O2)C[C@H]1OC` [Example 1, 42-Deoxy-42-(2-ethoxy-2-oxoethoxy)rapamycin]: the “suppression of T-cell proliferation (LAF), in words” value in the test on thymocyte proliferation is recorded as “suppressed T-cell proliferation”. Moreover, in the test on thymocyte proliferation, the “LAF (ratio)” value was determined as 0.46. The “Skin graft survival time (days + SD)” value in the test on pinch skin graft amounted to 7.5 ± 1.2 days. Also, the MIC stood at 0.5 µg/mL (≈ 0.5 µM) with Candida albicans [1] (ATCC10231); 0.1 µg/mL (≈ 0.1 µM) with Candida albicans [1] (setting [6]); 0.2 µg/mL (≈ 0.2 µM) with Candida albicans [1] (setting [7]); 0.1 µg/mL (≈ 0.1 µM) in the test on Candida albicans [1] (setting [8]); 0.05 µg/mL (≈ 0.05 µM) in the test with Candida albicans [1] (strain 3669, read-out: MIC).
With `CO[C@H]1C[C@@H]2CC[C@@H](C)[C@@](O)(O2)C(=O)C(=O)N2CCCC[C@H]2C(=O)O[C@H]([C@H](C)C[C@@H]2CC[C@@H](OCC(=O)OC(C)(C)C)[C@H](OC)C2)CC(=O)[C@H](C)/C=C(\C)[C@@H](O)[C@@H](OC)C(=O)[C@H](C)C[C@H](C)/C=C/C=C/C=C/1C` [Example 2, 42-Deoxy-42-[2-(1,1-dimethylethoxy)-2-oxoethoxy]rapamycin], the “suppression of T-cell proliferation (LAF), in words” value with thymocyte proliferation is on record as “suppressed T-cell proliferation”. Further, in the test with thymocyte proliferation, the “LAF (ratio)” value is 0.27. Further, the MIC in the test with Candida albicans [1] (ATCC10231, strain ATCC 10231, read-out: MIC) amounted to 0.05 µg/mL (≈ 0.0486 µM); in the test on Candida albicans [1] (setting [6]) it was 0.2 µg/mL (≈ 0.194 µM); in the test with Candida albicans [1] (setting [7]) it was 0.05 µg/mL (≈ 0.0486 µM); in the test with Candida albicans [1] (setting [8]), 0.1 µg/mL (≈ 0.0972 µM); with Candida albicans [1] (strain 3669, read-out: MIC), 0.2 µg/mL (≈ 0.194 µM).
For the compound `CO[C@H]1C[C@@H]2CC[C@@H](C)[C@@](O)(O2)C(=O)C(=O)N2CCCC[C@H]2C(=O)O[C@H]([C@H](C)C[C@@H]2CC[C@@H](O)[C@H](OC)C2)CC(=O)[C@H](C)/C=C(\C)[C@@H](O)[C@@H](OC)C(=O)[C@H](C)C[C@H](C)/C=C/C=C/C=C/1C` [Rapamycin, rapamycin], the “PLN (ratio)” value in test [2] amounted to 1.0. In the test on Candida albicans [3], the antifungal activity entry is listed as “found to have antifungal activity”. Also, the antitumor activity result in test [4] is listed as “shown to have antitumor activity”. The “effectiveness in experimental allergic encephalomyelitis model” value in test [5] is listed as “effective in the experimental allergic encephalomyelitis model”.
